Measurements reported in ChEMBL document CHEMBL2177019, “Carbamate derivatives of indolines as cholinesterase inhibitors and antioxidants for the treatment of Alzheimer's disease” (J Med Chem, 2012).
The source made the active and inactive calls. The calls are words filed in the database; no cut-off is given here.

Experiments:
[1] = Antioxidant activity assessed as scavenging of morpholino sydononimine based nitric oxide release by chemiluminescence assay; format: functional
Butyrylcholinesterase = Butyrylcholinesterase (Equus caballus, UniProt Q9N1N9); assay: Inhibition of equine BuChE after 120 mins by Ellman's method
Chain of Butyrylcholinesterase (Q9N1N9 whole entry): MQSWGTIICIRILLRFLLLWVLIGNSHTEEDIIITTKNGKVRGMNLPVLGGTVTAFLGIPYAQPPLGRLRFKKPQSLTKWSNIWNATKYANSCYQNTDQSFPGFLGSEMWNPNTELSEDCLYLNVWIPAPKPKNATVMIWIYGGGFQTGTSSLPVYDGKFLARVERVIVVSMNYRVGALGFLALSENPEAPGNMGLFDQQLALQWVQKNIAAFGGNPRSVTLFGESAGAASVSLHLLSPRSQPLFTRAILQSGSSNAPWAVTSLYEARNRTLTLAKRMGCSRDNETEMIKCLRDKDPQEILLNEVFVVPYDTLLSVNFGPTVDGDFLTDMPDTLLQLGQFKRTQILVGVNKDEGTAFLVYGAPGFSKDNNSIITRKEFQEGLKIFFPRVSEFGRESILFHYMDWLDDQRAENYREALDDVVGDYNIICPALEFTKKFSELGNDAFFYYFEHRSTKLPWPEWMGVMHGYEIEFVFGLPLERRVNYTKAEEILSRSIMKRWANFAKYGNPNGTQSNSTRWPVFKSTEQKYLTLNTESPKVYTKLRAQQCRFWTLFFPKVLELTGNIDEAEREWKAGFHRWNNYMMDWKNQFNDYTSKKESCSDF

[2] = tested on: Radical scavenging activity; assay: Antioxidant activity of the compound assessed as DPPH radical scavenging at 10 uM after 30 secs by spectrophotometry; format: functional
[3] = Antioxidant activity assessed as scavenging of glucose oxidase-generated H2O2 and hydroxyl radicals by chemiluminescence assay; format: functional
Acetylcholinesterase = target: T1, Acetylcholinesterase (Bos taurus, UniProt P23795); assay: Inhibition of bovine AChE after 120 mins by Ellman's method
T1 sequence (P23795 whole entry): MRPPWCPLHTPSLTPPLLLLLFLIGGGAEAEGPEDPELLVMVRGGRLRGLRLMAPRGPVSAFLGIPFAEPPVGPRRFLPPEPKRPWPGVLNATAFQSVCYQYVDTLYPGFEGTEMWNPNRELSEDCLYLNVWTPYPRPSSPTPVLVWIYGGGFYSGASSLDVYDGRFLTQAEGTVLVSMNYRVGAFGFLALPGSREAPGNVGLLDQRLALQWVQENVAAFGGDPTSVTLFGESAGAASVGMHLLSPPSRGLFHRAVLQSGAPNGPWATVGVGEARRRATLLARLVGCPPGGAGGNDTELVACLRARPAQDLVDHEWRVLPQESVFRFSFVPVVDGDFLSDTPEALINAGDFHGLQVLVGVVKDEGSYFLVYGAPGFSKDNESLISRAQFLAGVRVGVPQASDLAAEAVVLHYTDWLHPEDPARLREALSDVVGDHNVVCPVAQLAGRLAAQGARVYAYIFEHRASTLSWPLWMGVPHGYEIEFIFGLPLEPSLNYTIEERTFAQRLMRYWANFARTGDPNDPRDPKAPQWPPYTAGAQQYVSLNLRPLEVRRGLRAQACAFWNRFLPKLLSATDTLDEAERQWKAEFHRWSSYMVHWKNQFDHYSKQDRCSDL

[4] = Cytotoxicity against rat H9c2 cells assessed as cell viability in absence of H2O2; format: cell-based; design: concentration or dose not given beside the values; details: read-out: Activity
[5] = Selectivity ratio of IC50 for equine BuChE to IC50 for bovine AChE
H9c2 [6] = assay: Prevention of apoptosis in rat H9c2 cells assessed as protection against oxidative stress-induced cytotoxicity at 100 nM […] by Alamar blue assay; format: functional
Gallus gallus [7] = species on record: Gallus gallus; assay: Prevention of apoptosis in chick primary telencephalon neurons assessed as protection against serum deprivation-induced oxidative stress at 10 nM measured on day 8 by MTT assay; format: functional
Gallus gallus [8] = species on record: Gallus gallus; assay: Prevention of apoptosis in chick primary telencephalon neurons assessed as protection against serum deprivation-induced cytotoxicity at 1 to 10 uM by MTT assay; format: functional
[9] = Antioxidant activity of the compound assessed as DHR radical scavenging activity at 10 uM by fluorescence assay; format: functional
H9c2 [10] = assay: Prevention of apoptosis in rat H9c2 cells assessed as reduction in fall of mitochondrial membrane potential at 100 nM after 1 hr; format: functional; design: scale not given: the % may be the effect or the level left
Liver microsomes = assay: Metabolic stability in human liver microsomes; format: ADME, Microsome
[11] = Stability in human plasma assessed as compound hydrolysis at 37 degC within 90 mins; format: ADME, cell-free; details: read-out: Drug degradation
[12] = Chemical stability in MeCN/water solution at 25 degC; format: physicochemical; details: buffer
Liver = assay: Metabolic stability in mouse liver microsomes; format: ADME, Microsome

## COC(=O)CCC1CNc2cccc(OC(=O)N(C)c3ccc(OC)cc3)c21.Cl (centres undefined)
[1]
  IC50: 3.18 µM
Butyrylcholinesterase
  IC50: 4.6 µM
[2]
  Activity: 30.4%
[3]
  IC50: 19 µM
Acetylcholinesterase
  IC50: 1.2 µM
[4]
  viability: 84.7%
[5]
  Ratio IC50: 3.8
H9c2 [6]
  Activity: 43.1%

## CCN(C)C(=O)Oc1cccc2c1C(CCC(N)=O)CN2.Cl (centres undefined)
Butyrylcholinesterase
  IC50: 8.5 µM
[3]
  IC50: 2.39 µM
Acetylcholinesterase
  IC50: 62 µM
[4]
  viability: 96%
[5]
  Ratio IC50: 0.14
H9c2 [6]
  Activity: 55.2%

## CCN(C)C(=O)Oc1ccc2c(c1)N(C)CC2
Butyrylcholinesterase
  IC50: 58.7 µM
[3]
  IC50: 1.15 µM
Acetylcholinesterase
  IC50: 418 µM
[5]
  Ratio IC50: 0.14

## CN(C)C(=O)Oc1cccc2c1CCN2.Cl
Butyrylcholinesterase
  IC50: 1.3 µM
[3]
  IC50: 0.77 µM
Acetylcholinesterase
  IC50: 1.2 µM
[5]
  Ratio IC50: 1.08
H9c2 [6]
  Activity: 46.8%

## COC(=O)CCC1CNc2cc(OC(=O)N(C)c3ccc(OC)cc3)ccc21.Cl (centres undefined)
Butyrylcholinesterase
  IC50: 54 µM
[3]
  IC50: 3.41 µM
[5]
  Ratio IC50: 1.4
H9c2 [6]
  Activity: 43.8%

## CCN(C)C(=O)Oc1cccc2c1C(CCC(=O)OC)CN2 (centres undefined)
[2]
  Activity: 24.8%
Gallus gallus [7]
  Activity: Active
[5]
  Ratio IC50: 0.04
Gallus gallus [8]
  Activity: Active

## CCN(C)C(=O)Oc1cccc2[nH]cc(CCC(=O)OC)c12
Butyrylcholinesterase
  IC50: 9.5 µM
Acetylcholinesterase
  IC50: 19.6 µM
[5]
  Ratio IC50: 0.48

## O=C(O)CCC1CNc2cc(O)ccc21 (centres undefined)
[1]
  IC50: 1.34 µM
[3]
  IC50: 2.34 µM
H9c2 [6]
  Activity: inactive
[9]
  Activity: 41.9%

## CCN(C)C(=O)Oc1cccc2c1C(CCC(=O)OC)CN2C (centres undefined)
Butyrylcholinesterase
  IC50: 6.8 µM
[3]
  IC50: 3.13 µM
Acetylcholinesterase
  IC50: 58.7 µM
[4]
  viability: 97.3%
[5]
  Ratio IC50: 0.11
H9c2 [6]
  Activity: inactive

## CCN(C)C(=O)Oc1cccc2c1NCC2CCC(=O)OC (centres undefined)
Butyrylcholinesterase
  IC50: 0.008 µM
Acetylcholinesterase
  IC50: 61.6 µM
[5]
  Ratio IC50: 0.00012

## CCN(C)C(=O)Oc1ccc2c(c1)NCC2CCC(=O)OC (centres undefined)
[2]
  Activity: 31.7%
[5]
  Ratio IC50: 0.07

## CCOC(=O)CCC1CNc2cccc(OC(=O)N(C)CC)c21 (centres undefined)
Butyrylcholinesterase
  IC50: 0.56 µM
Acetylcholinesterase
  IC50: 40.2 µM

## COC(=O)CCC1CNc2cccc(O)c21.Cl (centres undefined)
[1]
  IC50: 0.25 µM
[2]
  Activity: 32.4%
[3]
  IC50: 0.67 µM
Gallus gallus [7]
  Activity: Active
[4]
  viability: 121%
H9c2 [6]
  Activity: 57.3%
Gallus gallus [8]
  Activity: Active
[9]
  Activity: 10.6%

## COC(=O)CCC1CN(C)c2cccc(O)c21 (centres undefined)
[3]
  IC50: 0.45 µM
[9]
  Activity: 15.4%

## CCCCN(C)C(=O)Oc1ccc2c(CCC(=O)OC)c[nH]c2c1
H9c2 [10]
  Activity: 56%
H9c2 [6]
  Activity: 28.8%

## COC(=O)CCC1CN(C)c2cc(OC(=O)N(C)c3ccc(OC)cc3)ccc21.Cl (centres undefined)
Butyrylcholinesterase
  IC50: 372 µM
[3]
  IC50: 2.24 µM
Acetylcholinesterase
  IC50: 17.4 µM
[4]
  viability: 106%
H9c2 [6]
  Activity: 33.3%

## CCN(C)C(=O)Oc1ccc2c(c1)NCC2CCC(=O)OC.Cl (centres undefined)
[1]
  IC50: 2.36 µM
Butyrylcholinesterase
  IC50: 3.9 µM
H9c2 [10]
  Activity: 77%
[3]
  IC50: 1.45 µM
Acetylcholinesterase
  IC50: 55.2 µM
[4]
  viability: 100%
H9c2 [6]
  Activity: 58.5%

## CCCCN(C)C(=O)Oc1cccc2c1C(CCC(=O)OC)CN2C.Cl (centres undefined)
Butyrylcholinesterase
  IC50: 197 µM
[3]
  IC50: 6.84 µM
[4]
  viability: 93.9%
[5]
  Ratio IC50: 2.89
H9c2 [6]
  Activity: 31.5%

## CC(=O)N[C@@H](CS)C(=O)O [ACETYLCYSTEINE]
H9c2 [10]
  Activity: 20%
H9c2 [6]
  Activity: 25.2%

## CCN(C)C(=O)Oc1cccc2c1C(CCC(=O)OC)CN2.CS(=O)(=O)O (centres undefined)
Liver microsomes
  Stability: Unstable
[11]
  metabolised at […]: 40%
[12]
  Stability: 9 days
Liver
  Stability: Unstable

## CCN(C)C(=O)Oc1cccc([C@H](C)N(C)C)c1 [RIVASTIGMINE]
Acetylcholinesterase
  IC50: 0.62 µM

## CCN(C)C(=O)Oc1cccc2c1c(CCC(=O)OC)cn2C
Acetylcholinesterase
  IC50: 180 µM

## O=C(O)c1cc(O)c(O)c(O)c1
[2]
  Activity: 31.4%
